1 compound from patent publication US20100111874A1, “METHOD OF CANCER DETECTION AND TREATMENT” (University of Medicine and Dentistry of New Jresey, priority 2007, published 2010) can be followed below.

The structures appear in SMILES notation.

The experiment has as its target T1, TOP1-DNA covalent complexes (Homo sapiens, UniProt P11387).
T1 construct: endogenous in cells; host or cells: MCF7 and MCF7/RC breast cancer cells
T1 sequence (P11387 2-765 limits assumed): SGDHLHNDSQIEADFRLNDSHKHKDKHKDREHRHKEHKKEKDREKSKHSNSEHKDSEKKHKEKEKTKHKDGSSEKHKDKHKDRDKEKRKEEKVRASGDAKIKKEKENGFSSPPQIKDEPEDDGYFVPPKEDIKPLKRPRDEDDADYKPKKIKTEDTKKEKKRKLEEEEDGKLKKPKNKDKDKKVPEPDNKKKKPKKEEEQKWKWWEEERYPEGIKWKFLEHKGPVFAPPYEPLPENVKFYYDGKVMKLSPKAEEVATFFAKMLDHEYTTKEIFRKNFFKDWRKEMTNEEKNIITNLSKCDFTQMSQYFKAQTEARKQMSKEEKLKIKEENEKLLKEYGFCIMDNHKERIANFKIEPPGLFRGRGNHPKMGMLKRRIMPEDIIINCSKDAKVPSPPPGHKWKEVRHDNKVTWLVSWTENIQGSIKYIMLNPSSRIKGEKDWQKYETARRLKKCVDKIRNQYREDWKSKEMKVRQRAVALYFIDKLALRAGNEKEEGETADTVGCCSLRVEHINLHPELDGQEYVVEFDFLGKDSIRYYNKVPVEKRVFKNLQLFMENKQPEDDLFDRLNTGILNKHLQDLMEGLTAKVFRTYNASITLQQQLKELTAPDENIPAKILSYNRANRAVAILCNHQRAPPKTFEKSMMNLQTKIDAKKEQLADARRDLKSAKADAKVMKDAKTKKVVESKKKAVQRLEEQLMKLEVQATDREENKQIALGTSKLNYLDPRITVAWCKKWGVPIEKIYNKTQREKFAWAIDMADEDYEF
The experiment in a line: Band depletion assay for TOP1 cleavage complexes. Conditions: MCF7/RC vs MCF7; CPT 25 μM for 15 min. In kind it is cell-based. The procedure:
Band depletion assay for TOP1 cleavage complexes. Cells (106/sample) are treated with CPT (25 μM in 1% DMSO) for various times at 37° C. Cells are then lysed with 0.2 N NaOH containing 2 mM EDTA as described previously (14). Cell lysates are then neutralized with 1/10 volume of a solution containing 10% NP-40, 1 M Tris (pH 7.4), 0.1 M MgCl2, 0.1 M CaCl2, 10 mM dithiothreitol, 1 mM EGTA, and a mixture of peptide protease inhibitors (100 μg/ml each of leupeptin, pepstatin, and aprotinin), followed by the addition of another 1/10 volume of 2 N HCl. Reactions are terminated by the addition of SDS-PAGE sample buffer. Immunoblotting analysis of cell lysates is carried out using anti-Scl-70 antibody from scleroderma patients as described above.

Turning to `CC[C@@]1(O)C(=O)OCc2c1cc1n(c2=O)Cc2cc3ccccc3nc2-1` [CPT, camptothecin], the “amount of TOP1-DNA covalent complexes” value was “No change”.
